Reference: patent EP4644383A1 (Jiangsu Yahong Meditech Co., Ltd., priority 2022, dated 2024)
Read-outs that look alike come from different tables or passages of the source.

Tests used:
Ba/F3-BCR-FGFR1 cells = assay: Inhibition of proliferation activity of Ba/F3-BCR-FGFR1 cells (CellTiter-Glo); type: cell-based; settings: read-out: IC50 (nM) Ba/F3-BCR-FGFR1
Procedure: The present experiment used CellTiter-Glo® Luminescent Cell Viability Assay (Promega: G7573) kit, which was a homogeneous cell viability detection method and determined the cell viability of cultured cells by quantifying ATP. • ① Ba/F3-BCR-FGFR1 or Ba/F3-FGFR3-BAIAP2L1 cells were cultured in 1640 complete medium (Gibco: 11879020) (10% FBS (Gibco: 10091-148)+1% Pen Strep (Gibco: 15140122)) under the condition of 37°C and 5% CO2. • (2) The cells in logarithmic growth phase were harvested and counted using a […]. The trypan blue exclusion method was used to detect cell viability to ensure the cell viability was above 90%. • ③ The cell density was adjusted using 1640 complete medium, and then, the cells were seeded into a 96-well cell culture plate at 90 µL/well with a total of 2000 cells. • ④ A 10-fold drug solution was prepared starting from a maximum drug concentration of 10 µM and 4-fold serially diluted into10 concentrations. Then, 10 µL of each of the serially diluted compounds was transferred to the corresponding experimental wells of a 96-well cell plate, with two replicates for each drug concentration. • ⑤ The 96-well plate with the cells that had been treated with the drugs was placed under the condition of 37°C and 5% CO2 to be further cultured for 72 hours, and then analyzed by CTG. • ⑥ The CTG reagent was melted and the cell plate was equilibrated to room temperature for 30 minutes. • ⑦ 50 µL of the CTG solution was added to each well. • ⑧ The cell plate was shaken on an orbital shaker for 5 minutes to lyse the cells. • ⑨ The cell plate was placed at room temperature for 20 minutes to stabilize the luminescence signal. The luminescence values were read to collect the data. • ⑩ The data were analyzed using XLFit excel plugin version 5.5.0.5, and fitted with non-linear S-curve regression to obtain the dose-response curves and thus calculate the IC50 values. Y = Bottom + (Top-Bottom)/((1+(IC50/X))^(∧) HillSlope [formula]
(§1) "Top" refers to the maximum response, "Bottom" refers to the minimum response, and "HillSlope" refers to the slope of the curve.
"Max" represents the average value of the cell control+DMSO, and "Min" represents the average value of the medium control+DMSO.

[1] = test system: RT112 cells (bladder cancer cells); assay: Inhibition of proliferation activity of RT112 cells (CellTiter-Glo); type: cell-based; settings: Homo sapiens, read-out: IC50 (nM) RT112
Procedure: The present experiment used CellTiter-Glo® Luminescent Cell Viability Assay (Promega: G7573) kit, which was a homogeneous cell viability detection method and determined the cell viability of cultured cells by quantifying ATP. • ① RT112 cells were cultured in MEM complete medium (Gibco: 51200038) (10% FBS (Gibco: 10091-148)+1% Pen Strep (Gibco: 15140122)+1% NEAA (Gibco: 11140050)) under the condition of 37°C and 5% CO2. • (2) The cells in logarithmic growth phase were harvested and counted using a […]. The trypan blue exclusion method was used to detect cell viability to ensure the cell viability was above 90%. • ③ The cell density was adjusted using MEM complete medium, and then, the cells were seeded into a 96-well cell culture plate at 90 µL/well with a total of 3000 cells. • ④ The 96-well plate with the cells was placed under the condition of 37°C and 5% CO2 to be cultured for 24 hours. • ⑤ 24 hours later, a 10-fold drug solution was prepared starting from a maximum drug concentration of 10 µM and 4-fold serially diluted into10 concentrations. Then, 10 µL of each of the serially diluted compounds was transferred to the corresponding experimental wells of a 96-well cell plate, with two replicates for each drug concentration. • ⑥ The 96-well plate with the cells that had been treated with the drugs was placed under the condition of 37°C and 5% CO2 to be further cultured for 72 hours, and then analyzed by CTG. • ⑦ The CTG reagent was melted and the cell plate was equilibrated to room temperature for 30 minutes. • ⑧ 50 µL of the CTG solution was added to each well. • ⑨ The cell plate was shaken on an orbital shaker for 5 minutes to lyse the cells. • ⑩ The cell plate was placed at room temperature for 20 minutes to stabilize the luminescence signal. The luminescence values were read to collect the data. • ⑪ The data were analyzed using XLFit excel plugin version 5.5.0.5, and fitted with non-linear S-curve regression to obtain the dose-response curves and thus calculate the IC50 values. Y = Bottom + (Top-Bottom)/((1+(IC50/X))^(∧) HillSlope [formula]
as §1
"Max" represents the average value of the cell+DMSO control, and "Min" represents the average value of the medium control+DMSO.

FGFR1 = target: T1, FGFR1 (Homo sapiens, UniProt P11362); assay: FGFR1 kinase activity inhibition assay (LanthaScreen TR-FRET); type: biochemical
T1 construct: cytoplasmic domain [398-822 (terminal) amino acids]; purchased Carna 08-133
Outline: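 Emission ratio 520 nm/495 nm by TR-FRET after stopping reaction with 10 mM EDTA and 60 min incubation at 22°C. Inhibition normalized between no-enzyme (min) and DMSO (max) controls, then fitted to a four-parameter curve (Top, Bottom, HillSlope).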

[2] = Ba/F3-BCR-FGFR1 cells, 72 hours, CTG
[3] = FGFR1 kinase, TR-FRET, read-out: IC50 (nM) FGFR1
[4] = RT-112, RT112 cells, 72 hours, CTG

T1 sequence (P11362 398-822): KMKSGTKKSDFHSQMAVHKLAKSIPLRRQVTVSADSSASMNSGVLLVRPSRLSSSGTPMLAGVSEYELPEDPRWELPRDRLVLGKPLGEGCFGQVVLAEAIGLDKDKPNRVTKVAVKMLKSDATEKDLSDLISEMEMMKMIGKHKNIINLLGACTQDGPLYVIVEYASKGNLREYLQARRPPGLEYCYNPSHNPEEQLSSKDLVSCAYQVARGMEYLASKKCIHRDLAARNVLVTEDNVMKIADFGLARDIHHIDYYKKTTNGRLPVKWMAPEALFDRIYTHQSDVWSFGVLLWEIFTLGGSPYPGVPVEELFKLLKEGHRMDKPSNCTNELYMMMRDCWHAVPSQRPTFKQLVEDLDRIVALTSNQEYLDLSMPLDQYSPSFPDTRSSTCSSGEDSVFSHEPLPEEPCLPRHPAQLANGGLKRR

SMILES | IC50 (Ba/F3-BCR-FGFR1 cells; [2]) [nM] | IC50 (FGFR1; [3]) [nM] | IC50 [1, 4] [nM] | IC50 (Ba/F3-BCR-FGFR1 cells; 72 h) [nM] | IC50 ([1]; RT-112, 72 h) [nM] | IC50 (FGFR1) [nM]
C[C@@H](Oc1ccc2[nH]nc(-c3ccc(S(C)(=N)=O)nc3)c2c1)c1c(Cl)cncc1Cl (stereo partly drawn) [Comparative Example 85, (5-(5-((R)-1-(3,5-dichloropyridin-4-yl)ethoxy)-1H-indazol-3-yl)pyridin-2-yl)(imino)(methyl)-sulfanone, reference compound] | – | – | – | 615 | 58.8 | –
C[C@@H](Oc1cc(F)c2[nH]nc(-c3cnn(CCN4CCOCC4)c3)c2c1)c1c(Cl)cncc1Cl [Example 12, (R)-4-(2-(4-(5-(1-(3,5-dichloropyridin-4-yl)ethoxy)-7-fluoro-1H-indazol-3-yl)-1H-pyrazol-1-yl)ethyl)morph oline] | 592 | 10 to 100 | 43.1 | – | – | –
CC(Oc1ccc2[nH]nc(-c3cnn(C)c3)c2c1)c1cccc2ncccc12 (centres unmarked) [Example 88, 5-(1-((3-(1-methyl-1H-pyrazol-4-yl)-1H-indazol-5-yl)oxy)ethyl)quin oline] | 3420 | 10 to 100 | 167 | – | – | –
Cc1ccc2ncccc2c1C(C)Oc1ccc2[nH]nc(-c3cnn(C)c3)c2c1 (centres unmarked) [Example 95, 6-methyl-5-(1-((3-(1-methyl-1H-pyrazol-4-yl)-1H-indazol-5-yl)oxy)ethyl)quinolinee] | 406 | – | 23.4 | – | – | 10 to 100
CC(Oc1ccc2[nH]nc(-c3cnn(C)c3)c2c1)c1c(C(F)F)ccc2ncccc12 (centres unmarked) [Example 127, 6-(difluoromethyl)-5-(1-((3-(1-methyl-1H-pyrazol-4-yl)-1H-indazol-5-yl)oxy)ethyl)quinoline] | 941 | > 100 | 25.5 | – | – | –
CC(Oc1ccc2[nH]nc(-c3cnn(C)c3)c2c1)c1c(CF)ccc2ncccc12 (centres unmarked) [Example 130, 6-(fluoromethyl)-5-(1-((3-(1-methyl-1H-pyrazol-4-yl)-1H-indazol-5-yl)oxy)ethyl)q uinoline] | 1190 | 10 to 100 | 37.9 | – | – | –
CC(Oc1ccc2[nH]nc(-c3cnn(C4CN(C(=O)C(C)(C)O)C4)c3)c2c1)c1cccc2nccnc12 (centres unmarked) [Example 190, 2-hydroxy-2-methyl-1-(3-(4-(5-(1-(quinoxalin-5-yl)ethoxy)-1H-indazol-3-yl)-1H-pyrazol-1-yl)azetidin-1-yl)propan-1-one] | 425 | 10 to 100 | 18.6 | – | – | –
CC(=O)N1CC(n2cc(-c3n[nH]c4ccc(OC(C)c5cccc6nccnc56)cc34)cn2)C1 (centres unmarked) [Example 218, 1-(3-(4-(5-(1-(quinoxalin-5-yl)ethoxy)-1H-indazol-3-yl)-1H-pyrazol-1-yl)azetidin-1-yl)ethan-1-one] | 441 | 10 to 100 | 16.7 | – | – | –
CC(Oc1cc2c(-c3cnn(C)c3)n[nH]c2cc1F)c1cc(Cl)cc2nccnc12 (centres unmarked) [Example 227, 7-chloro-5-(1-((6-fluoro-3-(1-methyl-1H-pyrazol-4-yl)-1H-indazol-5-yl)oxy)ethyl)qu inoxaline] | 390 | 1 to 10 | 34.5 | – | – | –
[2H]C([2H])([2H])c1cc2nccnc2c(C(C)Oc2ccc3[nH]nc(-c4cnn(C)c4)c3c2)n1 (centres unmarked) [Example 241] | 62.3 | – | 13.5 | – | – | 1 to 10

More lines, in order of falling IC50 (Ba/F3-BCR-FGFR1 cells; [2]), values ahead:

IC50 (Ba/F3-BCR-FGFR1 cells; [2]) [nM] | IC50 (FGFR1; [3]) [nM] | IC50 [1, 4] [nM] | SMILES | IC50 (Ba/F3-BCR-FGFR1 cells; 72 h) [nM] | IC50 ([1]; RT-112, 72 h) [nM] | IC50 (FGFR1) [nM]
377 | 10 to 100 | 47.5 | CC(Oc1ccc2[nH]nc(-c3cnn(C)c3)c2c1)c1cc(Cl)cc2nccnc12 (centres unmarked) [Example 136, 7-chloro-5-(1-((3-(1-methyl-1H-pyrazol-4-yl)-1H-indazol-5-yl)oxy)ethyl)qu inoxaline] | – | – | –
277 | 10 to 100 | 10.7 | COCC(=O)N1CC(n2cc(-c3n[nH]c4ccc(OC(C)c5cccc6nccnc56)cc34)cn2)C1 (centres unmarked) [Example 188, 2-methoxy-1-(3-(4-(5-(1-(quinoxalin-5-yl)ethoxy)-1H-indazol-3-yl)-1H-pyrazol-1-yl)azetidin-1-yl)ethan-1-one] | – | – | –
246 | 10 to 100 | 85 | CC(Oc1ccc2[nH]nc(-c3cnn(C)c3)c2c1)c1cccn2ncnc12 (centres unmarked) [Example 101, 8-(1-((3-(1-methyl-1H-pyrazol-4-yl)-1H-indazol-5-yl)oxy)ethyl)-[1,2,4]triazolo[1,5-a]pyridine] | – | – | –
177 | 1 to 10 | 14 | C[C@@H](Oc1ccc2[nH]nc(-c3cnn(CCN4CCN(C)C(=O)C4)c3)c2n1)c1c(Cl)cncc1Cl [Example 54, (R)-4-(2-(4-(5-(1-(3,5-dichloropyridin-4-yl)ethoxy)-1H-pyrazolo[4,3-b]pyridin-3-yl)-1H-pyrazol-1-yl)ethyl)-1-methylpiperazin-2-one] | – | – | –
161 | 1 to 10 | 15.5 | CC(Oc1ccc2[nH]nc(-c3cnn(C)c3)c2c1)c1nc(C(F)F)cc2nccnc12 (centres unmarked) [Example 236, 7-(difluoromethyl)-5-(1-((3-(1-methyl-1H-pyrazol-4-yl)-1H-indazol-5-yl)oxy)ethyl)pyridino[3,4-b]pyrazine] | – | – | –
98.6 | 1 to 10 | 24.3 | CC(Oc1ccc2[nH]nc(-c3cnn(C)c3)c2c1)c1cccc2nccnc12 (centres unmarked) [Example 92, 5-(1-((3-(1-methyl-1H-pyrazol-4-yl)-1H-indazol-5-yl)oxy)ethyl)quin oxaline] | – | – | –
88.5 | 10 to 100 | 15.9 | C[C@@H](Oc1ccc2[nH]nc(-c3cnn(CCN4CCS(=O)(=O)CC4)c3)c2n1)c1c(Cl)cncc1Cl [Example 55, (R)-4-(2-(4-(5-(1-(3,5-dichloropyridin-4-yl)ethoxy)-1H-pyrazolo[4,3-b]pyridin-3-yl)-1H-pyrazol-1-yl)ethyl)thiomorph oline 1,1-dioxide] | – | – | –
55.3 | 10 to 100 | 9.7 | Cc1cc2nccnc2c(C(C)Oc2ccc3[nH]nc(-c4cnn(C)c4)c3c2)n1 (centres unmarked) [Example 183, 7-methyl-5-(1-((3-(1-methyl-1H-pyrazol-4-yl)-1H-indazol-5-yl)oxy)ethyl)pyridino [3,4-b]pyrazine] | – | – | –
38 | 1 to 10 | 3.6 | C[C@@H](Oc1ccc2[nH]nc(-c3cnn(C)c3)c2n1)c1c(Cl)cncc1Cl [Example 29, (R)-5-(1-(3,5-dichloropyridin-4-yl)ethoxy)-3-(1-methyl-1H-pyrazol-4-yl)-1H-pyrazolo[4,3-b]pyridine] | – | – | –
